Results from patent publication US4181710A, “Rumen-stable pellets” (Eastman Kodak Company, priority 1978, dated 1980).
Converted amounts (≈) assume the structure as drawn.

Experiment: Solubility of amino acids in water
Type: physicochemical
Details: at 25° C.

Row | solubility | Structure (SMILES)
1 | 167 mg/mL (≈ 1870 mM) | CC(N)C(=O)O (racemic) [DL - Alanine]
2 | 40 mg/mL (≈ 268 mM) | CSCCC(N)C(=O)O (racemic) [DL - Methionine]
